In patent US10570184B2, “GLP-1/glucagon receptor co-agonists for medical use” (Novo Nordisk A/S, priority 2014, dated 2020):
Starred links: 1 amine or outer side, 2 acyl side, 3 side chain; linkers in the order of their positions; H or OH if unused. Non-standard residues stand in square brackets, D forms with d. Residues, ends and D or L forms follow the SMILES beside them. Groups on a side chain read outwards from the residue. *: point of attachment. C18 diacid = O=C(O)CCCCCCCCCCCCCCCCC(=O)*; γGlu = O=C(O)[C@H](CCC(=O)[*:2])N[*:1]; AEEA = NCCOCCOCC(=O)O; Aib = CC(C)(N)C(=O)O

Tests used:
[1] = target: T1, human GLP-1 receptor (Homo sapiens, UniProt P43220); assay: Assay (II)(a) GLP-1 receptor binding, 125I-GLP-1 displacement SPA on BHK membranes; conditions: without presence of serum albumin; read-out: GLP-1R IC50 (nM) [Assay (II)(a)]
T1 construct: expressed in transfected cells; host or cells: membranes of BHK cells (parent BHKTS13), clone FCW467-12A
Procedure, shortened: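 Membranes from BHK cells (clone FCW467-12A) stably expressing human GLP-1R were incubated with serially diluted compounds (8×10EE-13 to 8×10EE-7 M before addition) and [125I]-GLP-1-(7-36)NH2 with WGA SPA beads, 2 h at 30° C, pH 7.4. IC50 taken from displacement by non-linear regression. Run at ≤0.001% or 2.0% final serum albumin.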

[2] = Assay (III) ThT fibrillation assay for physical stability; type: physicochemical; conditions: 250 μM in 10 mM HEPES buffer, 37° C., shaking 960 rpm
Text: The purpose of this assay is to assess the physical stability of the glucagon derivatives of the invention in aqueous solutions. Low physical stability of a peptide may lead to amyloid fibril formation, which is observed as well-ordered, thread-like macromolecular structures in the sample, which eventually may lead to gel formation. This has traditionally been measured by visual inspection of the sample. However, that kind of measurement is very subjective and depending on the observer. Therefore, the application of a small molecule indicator probe is much more advantageous. Thioflavin T (ThT) is such a probe and has a distinct fluorescence signature when binding to fibrils [Naiki et al. (1989) Anal. Biochem. 177, 244-249; LeVine (1999) Methods. Enzymol. 309, 274-284]. […] The constant t0 is the time needed to reach 50% of maximum fluorescence. The two important parameters describing fibril formation are the lag-time calculated by t0−2τ and the apparent rate constant kapp 1/τ. Samples were prepared freshly before each assay. Each sample composition is described in the legends. The pH of the sample was adjusted to the desired value using appropriate amounts of concentrated NaOH and HCl. Thioflavin T was added to the samples from a stock solution in H2O to a final concentration of 1 μM. Sample aliquots of 200 μl (250 μM of the glucagon derivative in 10 mM HEPES buffer, pH 7.5) were placed in a 96 well microtiter plate (Packard OptiPlate™-96, white polystyrene). Usually, four or eight replica of each sample (corresponding to one test condition) were placed in one column of wells. The plate was sealed with Scotch Pad (Qiagen). Incubation at given temperature, shaking and measurement of the ThT fluorescence emission were done in a Fluoroskan Ascent FL fluorescence platereader (Thermo Labsystems). The temperature was adjusted to 37° C. The plate was incubated with orbital shaking adjusted to 960 rpm with an amplitude of 1 mm. Fluorescence measurement was done using excitation through a 444 nm filter and measurement of emission through a 485 nm filter. Each run was initiated by incubating the plate at the assay temperature for 10 min. The plate was measured every 20 minutes for a desired period of time. Between each measurement, the plate was shaken and heated as described. After completion of the ThT assay the four or eight replica of each sample was pooled and centrifuged at 20000 rpm for 30 minutes at 18° C. The supernatant was filtered through a 0.22 μm filter and an aliquot was transferred to a HPLC vial. The concentration of peptide in the initial sample and in the filtered supernatant was determined by reverse phase HPLC using an appropriate standard as reference. The percentage fraction the concentration of the filtered sample constituted of the initial sample concentration was reported as the recovery. The measurement points were saved in Microsoft Excel format for further processing and curve drawing and fitting was performed using GraphPad Prism. The background emission from ThT in the absence of fibrils was negligible. The data points are typically a mean of four or eight samples and shown with standard deviation error bars. Only data obtained in the same experiment (i.e. samples on the same plate) are presented in the same graph ensuring a relative measure of fibrillation between experiments. The data set may be fitted to Eq. (1).

T1 sequence (P43220 24-463): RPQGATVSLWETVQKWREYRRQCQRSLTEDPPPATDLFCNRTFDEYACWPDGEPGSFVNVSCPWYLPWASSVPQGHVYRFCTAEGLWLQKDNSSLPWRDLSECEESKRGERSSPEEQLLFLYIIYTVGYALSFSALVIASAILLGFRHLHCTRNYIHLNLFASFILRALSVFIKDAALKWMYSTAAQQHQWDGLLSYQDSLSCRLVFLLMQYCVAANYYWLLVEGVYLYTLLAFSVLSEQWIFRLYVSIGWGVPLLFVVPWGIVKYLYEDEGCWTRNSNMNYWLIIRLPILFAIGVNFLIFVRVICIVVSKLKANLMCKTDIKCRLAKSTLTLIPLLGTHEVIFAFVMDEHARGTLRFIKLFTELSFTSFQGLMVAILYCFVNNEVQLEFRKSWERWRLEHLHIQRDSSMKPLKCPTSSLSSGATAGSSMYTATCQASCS

IC50 [1] | ThT Assay Lag time (h) [Assay (III), pH 7.5] [2] | Compound
0.3 nM | 45.0 h | CC[C@H](C)[C@H](NC(=O)[C@H](CC(C)C)NC(=O)[C@H](Cc1c[nH]c2ccccc12)NC(=O)[C@H](CCC(N)=O)NC(=O)[C@@H](NC(=O)[C@H](Cc1ccccc1)NC(=O)[C@H](CCC(=O)O)NC(=O)[C@H](CCCNC(=N)N)NC(=O)[C@H](C)NC(=O)[C@H](CCCNC(=N)N)NC(=O)[C@H](CCCNC(=N)N)NC(=O)[C@H](CC(C)C)NC(=O)[C@H](CC(=O)O)NC(=O)[C@H](CC(C)C)NC(=O)[C@H](Cc1ccc(O)cc1)NC(=O)[C@H](CCCCN)NC(=O)[C@H](CO)NC(=O)[C@H](CC(C)C)NC(=O)[C@H](CC(=O)O)NC(=O)[C@H](CO)NC(=O)[C@@H](NC(=O)[C@H](Cc1ccccc1)NC(=O)[C@@H](NC(=O)CNC(=O)[C@H](CCC(N)=O)NC(=O)C(C)(C)NC(=O)[C@@H](N)Cc1c[nH]cn1)[C@@H](C)O)[C@@H](C)O)C(C)C)C(=O)N[C@@H](CC(N)=O)C(=O)N[C@@H](CCCCNC(=O)CC[C@H](NC(=O)CC[C@H](NC(=O)COCCOCCNC(=O)COCCOCCNC(=O)CC[C@H](NC(=O)CCCCCCCCCCCCCCCCC(=O)O)C(=O)O)C(=O)O)C(=O)O)C(N)=O [Chem. 22, N^ε29-[(4S)-4-carboxy-4-[[(4S)-4-carboxy-4-[[2-[2-[2-[[2-[2-[2-[[(4S)-4-carboxy-4-(17-carboxyheptadecanoylamino)butanoyl]amino]ethoxy]ethoxy]acetyl]amino]ethoxy]ethoxy]acetyl]amino]butanoyl]amino]butanoyl]-[Aib2,Leu10,Leu16,Arg20,Glu21,Ile27,Lys29]-Glucagon amide] (H-H[Aib]QGTFTSDLSKYLDLRRAREFVQWLINK([γGlu-γGlu-AEEA-AEEA-γGlu-C18 diacid])-NH2; N-terminus assumed)
0.3 nM | 45.0 h | CC[C@H](C)[C@H](NC(=O)[C@H](CC(C)C)NC(=O)[C@H](Cc1c[nH]c2ccccc12)NC(=O)[C@H](CCC(N)=O)NC(=O)[C@@H](NC(=O)[C@H](Cc1ccccc1)NC(=O)[C@H](CC(=O)O)NC(=O)[C@H](CCCNC(=N)N)NC(=O)[C@H](C)NC(=O)[C@H](CCCNC(=N)N)NC(=O)[C@H](CCCNC(=N)N)NC(=O)[C@H](CC(C)C)NC(=O)[C@H](CC(=O)O)NC(=O)[C@H](CC(C)C)NC(=O)[C@H](Cc1ccc(O)cc1)NC(=O)[C@H](CCCCN)NC(=O)[C@H](CO)NC(=O)[C@H](CC(C)C)NC(=O)[C@H](CC(=O)O)NC(=O)[C@H](CO)NC(=O)[C@@H](NC(=O)[C@H](Cc1ccccc1)NC(=O)[C@@H](NC(=O)CNC(=O)[C@H](CCC(N)=O)NC(=O)C(C)(C)NC(=O)[C@@H](N)Cc1c[nH]cn1)[C@@H](C)O)[C@@H](C)O)C(C)C)C(=O)N[C@@H](CC(N)=O)C(=O)N[C@@H](CCCCNC(=O)CC[C@H](NC(=O)CC[C@H](NC(=O)COCCOCCNC(=O)COCCOCCNC(=O)CC[C@H](NC(=O)CCCCCCCCCCCCCCCCC(=O)O)C(=O)O)C(=O)O)C(=O)O)C(N)=O [Chem. 23, N^ε29-[(4S)-4-carboxy-4-[[(4S)-4-carboxy-4-[[2-[2-[2-[[2-[2-[2-[[(4S)-4-carboxy-4-(17-carboxyheptadecanoylamino)butanoyl]amino]ethoxy]ethoxy]acetyl]amino]ethoxy]ethoxy]acetyl]amino]butanoyl]amino]butanoyl]-[Aib2,Leu10,Leu16,Arg20,Ile27,Lys29]-Glucagon amide] (H-H[Aib]QGTFTSDLSKYLDLRRARDFVQWLINK([γGlu-γGlu-AEEA-AEEA-γGlu-C18 diacid])-NH2; N-terminus assumed)
0.9 nM | 45.0 h | CC[C@H](C)[C@H](NC(=O)[C@H](CC(C)C)NC(=O)[C@H](Cc1c[nH]c2ccccc12)NC(=O)[C@H](CCC(N)=O)NC(=O)[C@@H](NC(=O)[C@H](Cc1ccccc1)NC(=O)[C@H](CCC(=O)O)NC(=O)[C@H](CCCNC(=N)N)NC(=O)[C@H](C)NC(=O)[C@H](CCCNC(=N)N)NC(=O)[C@H](CCCNC(=N)N)NC(=O)[C@H](CC(C)C)NC(=O)[C@H](CC(=O)O)NC(=O)[C@H](CC(C)C)NC(=O)[C@H](Cc1ccc(O)cc1)NC(=O)[C@H](CCCCN)NC(=O)[C@H](CO)NC(=O)[C@H](CC(C)C)NC(=O)[C@H](CC(=O)O)NC(=O)[C@H](CO)NC(=O)[C@@H](NC(=O)[C@H](Cc1ccccc1)NC(=O)[C@@H](NC(=O)CNC(=O)[C@H](CCC(N)=O)NC(=O)C(C)(C)NC(=O)[C@@H](N)Cc1c[nH]cn1)[C@@H](C)O)[C@@H](C)O)C(C)C)C(=O)N[C@@H](CO)C(=O)N[C@@H](CCCCNC(=O)CC[C@H](NC(=O)CC[C@H](NC(=O)COCCOCCNC(=O)COCCOCCNC(=O)CC[C@H](NC(=O)CCCCCCCCCCCCCCCCC(=O)O)C(=O)O)C(=O)O)C(=O)O)C(N)=O [Chem. 30, N^ε29-[(4S)-4-carboxy-4-[[(4S)-4-carboxy-4-[[2-[2-[2-[[2-[2-[2-[[(4S)-4-carboxy-4-(17-carboxyheptadecanoylamino)butanoyl]amino]ethoxy]ethoxy]acetyl]amino]ethoxy]ethoxy]acetyl]amino]butanoyl]amino]butanoyl]-[Aib2,Leu10,Leu16,Arg20,Glu21,Ile27,Ser28,Lys29]-Glucagon amide] (H-H[Aib]QGTFTSDLSKYLDLRRAREFVQWLISK([γGlu-γGlu-AEEA-AEEA-γGlu-C18 diacid])-NH2; N-terminus assumed)
2.2 nM | 45.0 h | CC[C@H](C)[C@H](NC(=O)[C@H](CC(C)C)NC(=O)[C@H](Cc1c[nH]c2ccccc12)NC(=O)[C@H](C)NC(=O)[C@@H](NC(=O)[C@H](Cc1ccccc1)NC(=O)[C@H](CC(=O)O)NC(=O)[C@H](CCC(N)=O)NC(=O)[C@H](C)NC(=O)[C@H](CCCNC(=N)N)NC(=O)[C@H](CCCNC(=N)N)NC(=O)[C@H](CO)NC(=O)[C@H](CCC(=O)O)NC(=O)[C@H](CC(C)C)NC(=O)[C@H](Cc1ccc(O)cc1)NC(=O)[C@H](CCCCN)NC(=O)[C@H](CO)NC(=O)[C@H](Cc1ccc(O)cc1)NC(=O)[C@H](CC(=O)O)NC(=O)[C@H](CO)NC(=O)[C@@H](NC(=O)[C@H](Cc1ccccc1)NC(=O)[C@@H](NC(=O)CNC(=O)[C@H](CCC(N)=O)NC(=O)C(C)(C)NC(=O)[C@@H](N)Cc1c[nH]cn1)[C@@H](C)O)[C@@H](C)O)C(C)C)C(=O)N[C@@H](CO)C(=O)N[C@@H](CCCCNC(=O)CC[C@H](NC(=O)CC[C@H](NC(=O)COCCOCCNC(=O)COCCOCCNC(=O)CC[C@H](NC(=O)CCCCCCCCCCCCCCCCC(=O)O)C(=O)O)C(=O)O)C(=O)O)C(N)=O [Chem. 35, N^ε29-[(4S)-4-carboxy-4-[[(4S)-4-carboxy-4-[[2-[2-[2-[[2-[2-[2-[[(4S)-4-carboxy-4-(17-carboxyheptadecanoylamino)butanoyl]amino]ethoxy]ethoxy]acetyl]amino]ethoxy]ethoxy]acetyl]amino]butanoyl]amino]butanoyl]-[Aib2,Glu15,Ala24,Ile27,Ser28,Lys29]-Glucagon amide] (H-H[Aib]QGTFTSDYSKYLESRRAQDFVAWLISK([γGlu-γGlu-AEEA-AEEA-γGlu-C18 diacid])-NH2)
